Test results: patent US9790225B2, “4-amino-3-phenylamino-6-phenylpyrazolo[3,4-d]pyrimidine derivatives, their manufacture and their use as antiviral active substances” (Scandion Oncology A/S, priority 2011, dated 2017)
Where two headings read alike, the source gives them in different places. Marks after values point to notes of the source that are not given here.

Columns and labels:
[1] = In vivo conversion of prodrug to 1H pyrazol compound (serum); conditions: in the serum mainly only the final active ingredient (CRCV-340) can be proven
Text: Also covered are pro pharmacons (prodrugs) of the compounds, especially those which are characterized by a substituent on the pyrazol heteroatom in position 1. It has been shown that such types of compounds are converted in vivo to the 1H pyrazol compound. As an example, compounds have been mentioned in respect of which the pyrazol heteroatom in position 1 is substituted by an imino(phenyl)methyl substituent, such as, for example, 1-[Imino(phenyl)methyl]-4-amino-3-(4-trifluormethyl-phenyl)amino-6-phenylpyrazolo[3,4-d]pyrimidine, also designated by the IUPAC name 1-benzylcarboximidoyl-6-phenyl-3-N-[4-(trifluormethyl)phenyl]-1H-pyrazolo[3,4-d]-pyrimidine-3,4-diamine. Here this relates to a by-product of the manufacture of the compound described above, CRCV-340, resulting from the reaction of the compound CRCV-340 with an excess of benzamidine in the reaction mixture and having the following formula: […]
Also included are the salts, solvates or solvates of the salts produced by the above compounds. Within the scope of this invention the preferred salts are physiologically harmless salts of the compounds relating to the invention. […]

plasma protein = test: Plasma protein binding and release in vitro (ADMET); format: in vitro ADME; conditions: for Binding to plasma protein / Release of plasma protein: in vitro
Text: (§1) Objective: To investigate the Absorption, Distribution, Metabolism, Excretion and Toxicity (abbreviated as: ADMET) of OBR 5-340 in vitro, as well as in vitro tests on the plasma protein binding and the stability in the plasma and in liver microsomes. Tests: The In vitro tests performed with CRCV-340 as well as the data obtained are summarised in Table 2 in comparison with Ref. 2.

[2] = Plasma stability in vitro (ADMET); format: in vitro ADME
Text: as §1

[3] = Stability in liver microsomes in vitro (ADMET); format: in vitro ADME; conditions: for Stability in liver microsomes: in vitro
Text: as §1

[4] = Pharmacokinetics in mice, single per os application, HPLC of plasma; format: in vivo; conditions: for half-life / AUC(0-inf) / Tmax / AUC(0-t) / Cmax / MRT: mouse, po; for half-life: read-out: T1/2 (half life) (converted); for AUC(0-inf): read-out: AUC0-∞ (area under curve); for Tmax: read-out: Tmax (time to reach the maximum concentration in the blood); for AUC(0-t): read-out: AUC0-t (area under curve); for Cmax: read-out: Cmax (maximum concentration in the blood); for MRT: read-out: MRT (mean residence time)
Experimental: Tests: Substance and reference substance were applied respectively once in a concentration of 100 mg/kg KG, in 0.5 ml of a 10% Cremophor solution per os to the mice, After 0.5, 1, 2, 3, 4, 5, 6 and 7 hrs serum was taken and by means of HPLC analysis the concentrations of CRCV-340, Ref-2 and Ref-3 determined in the plasma of the mice.
Using the substance concentrations in the blood plasma determined by HPLC the pharmacokinetic parameters of the substances were calculated using the computer program ESTRIP (Table 3).

[5] = Acute toxicity in mice after single peroral administration; format: in vivo; conditions: for LD50 at 72 h: mouse, in vivo; for LD50 at 72 h / LD50: single peroral administration
Experimental: Tests: The acute toxicity of the substance CRCV-340 was tested in mice 19.5-20.5 g in weight, which was administered per os 40, 60, 80 or 120 mg substance/mouse (per 5 mice per substance and concentration). This corresponds to a dose of approx. 2 g, 3 g, 4 g or 6 g per kilogramme body weight. The toxic effects observed in the result correlated to the substance dose administered.

[6] = Subacute toxicity in mice over 28 days, intragastric; format: in vivo; conditions: mice, 12.5, 50 or 200 mg/kg once a day over 28 days
Experimental: Objective: To determine the subacute toxicity in mice in order to reveal possible side effects e.g. on general condition, weight, internal organs and metabolism, which could arise with subacute administration of CRCV-340 over 28 days.
Tests: Thus male and female mice weighing approx. 20 g received 12.5, 50 or 200 mg/kg of the substance CRCV-340 in a Cremophor formulation or the control group received Cremophor once a day over 28 days intragastrically administered via a tube. During the total period of the experiment the condition of the coat and the mucous membranes, the excreta and the general condition were assessed. The recording of the weight took place on days 7, 14, 21 and 28. Approx. 24 hrs. after the last substance dose the sense of direction of the animals was examined. The following biochemical parameters in the serum were analysed: protein content, urea, creatinine, the serum activity of aspartate aminotransferase, alanine aminotransferase and alkaline phosphatase. The haemoglobin concentration, hematocrit, the number of red and white blood cells as well as the platelets was determined in the blood smear. At the end of the experiment the mice were killed under anaesthetic and dissected, the condition of the internal organs were assessed macroscopically, the organ weight determined and samples for subsequent histological tests put into formalin.

[7] = system: human rhinovirus serotypes (HRV); test: zpE (cytopathic effect) inhibitory test with HRV serotypes; format: cell-based; conditions: for IC50: Human rhinovirus sp.; for Number of sensitive HRV: of 50 examined serotypes
Text: (§2) Objective: To determine the antiviral effective spectrum of CRCV-340 in respect of 50 different human rhinovirus serotypes and CVB3 patient isolates.
(§3) Tests: The 50 HRV serotypes and 20 clinical CVB3 isolates were reproduced in HeLa, HeLa Wis and/or LF cells, their titre determined and the serotype verified using sequencing. Accordingly zpE (zytopathic effect) inhibitory tests with the HRV or plaque-reductions tests with the CVB3 isolates were established. In the corresponding antiviral tests dose effect investigations with Ref-3 and CRCV-340 were carried out. Tables 5 and 6 give an overview of the mean 50% inhibitory concentrations.

clinical CVB3 isolates = test: Plaque-reduction test with clinical CVB3 isolates; format: cell-based; conditions: for IC50: Enterovirus B, CVB3; for Number of sensitive CVB3: of 20 clinical isolates, CRCV-340 maximum tested concentration 13.5 μM
Text: as §2, §3

CVB3 31-1-93 [8] = test: Mouse model of CVB3-induced chronic myocarditis; format: in vivo; conditions: CVB3 31-1-93-infected NMRI mice, 100 mg/kg once or twice a day over 7 days
Experimental: Investigations: The effect of CRCV-340 was investigated in the model of CVB 3-induced myocarditis in 8-week old male NMRI mice. In addition CVB3 31-1-93 or CVB3 H3-infected animals received once or twice a day 100 mg/kg of the substance in 50% or 20% PEG-400 in 1% CMC in water (placebo) administered over 7 days. Parameters to evaluate the therapeutic effect included changes in body weight, general condition, virus titre in heart and pancreas tissue as well as histopathological changes in the heart and pancreas. Pseudo-infected, placebo-treated or CRCV-340-treated animals served as a negative control and infected, placebo- or pleconaril-treated animals as a positive control over the course of the infection.

CVB3 31-1-93 [9] = test: Lethal mouse model of CVB3-induced myocarditis; format: in vivo; conditions: CVB3 31-1-93-infected BALB/c mice, 100 mg/kg twice a day over 7 days
Experimental: Investigations: The effect of the development candidate CRCV-340 was examined following testing of the infection dose in the model of the CVB 3-induced myocarditis in 6-7 weeks old male BALB/c mice. In addition CVB3 31-1-93 or CVB3 H3-infected animals received twice a day 100 mg/kg of the substance in 20% PEG-400 in 1% CMC in water (placebo) administered over 7 days. Changes in body weight, general condition and the lethality defined through the surrogate marker 25% loss of body weight served as parameters to evaluate the therapeutic effect. Pseudo-infected, placebo-treated or CRCV-340-treated animals represented the negative control and infected, placebo- or pleconaril-treated animals the positive control over the course of the infection.

[10] = in vivo; cited from earlier work
[11] = in vivo; cited from earlier work; remark: listed apart in the source
[12] = mice, single intragastric 100 mg/kg
[13] = plasma, mice, single intragastric 100 mg/kg
[14] = single peroral dose 40 mg/mouse
[15] = single peroral dose 60 mg/mouse
[16] = single peroral dose 80 mg/mouse
[17] = single peroral dose 120 mg/mouse
[18] = read-out: IC50 Pleconaril-resistant HRV (n = 5), mean
[19] = read-out: IC50 Pleconaril-sensitive HRV (n = 45), mean
[20] = read-out: IC50 all HRV (n = 50), mean
[21] = mean over 19 pleconaril-sensitive isolates, read-out: IC50 Pleconaril-sensitive CVB3 (n = 19), mean
[22] = mean over all 20 clinical isolates, read-out: IC50 all CVB3 (n = 20), mean
[23] = the one pleconaril-resistant isolate, read-out: IC50 Pleconaril-resistant CVB3 (n = 1)

## N=C(c1ccccc1)n1nc(Nc2ccc(C(F)(F)F)cc2)c2c(N)nc(-c3ccccc3)nc21 [CRCV-340 prodrug, 1-[Imino(phenyl)methyl]-4-amino-3-(4-trifluormethyl-phenyl)amino-6-phenylpyrazolo[3,4-d]pyrimidine]
[1]
  Conversion in vivo into the target compound: very easily converted into the target compound

## Nc1nc(-c2ccccc2)nc2[nH]nc(Nc3ccc(C(F)(F)F)cc3)c12 [CRCV-340, 4-amino-3-(4-trifluormethyl-phenyl)amino-6-phenylpyrazolo[3,4-d]pyrimidine]
Plasma protein; in comparison with Ref-2
  Release of plasma protein, comparison in words: increased release of plasma protein
Plasma protein
  Binding to plasma protein: 96.7%
  Release of plasma protein: 122.3%
[2]
  Plasma stability: 100.0%
[3]; compared with Ref-2 / state-of-the-art substances
  Stability in liver microsomes, comparison in words: better stability in liver microsomes
[3]
  Stability in liver microsomes: 112.0%
[4]; compared with Ref-2 and Ref-3 / state-of-the-art substances
  Bioavailability in mice, comparison in words: significantly better bioavailability
[4]; [12]
  Cmax (maximum concentration in the blood): 1254.4 ng/mL
  MRT (mean residence time): 3.54 h
[4]; in vivo, mice, single intragastric 100 mg/kg
  half-life: 3.54 h
[4]; [13]
  AUC(0-inf): 9600 ng·h/mL
  Tmax: 3 h
[5]
  LD50 at 72 h: 3120 mg/kg
  LD50: 62.4 mg/mouse
[5]; [14]
  Dead/Surviving 72 hrs after administration: 1/5
[5]; [15]
  Dead/Surviving 72 hrs after administration: 1/5
[5]; [16]
  Dead/Surviving 72 hrs after administration: 3/5
[5]; [17]
  Dead/Surviving 72 hrs after administration: 5/5
[6]
  Tolerance on subacute administration: extremely good tolerance
[7]; 50 HRV serotypes
  Effective spectrum in respect of HRV in comparison to Ref-3: significantly broader
[7]; [18]
  IC50: 22.6 µM
[7]; [19]
  IC50: 26.1 µM
[7]; [20]
  IC50: 25.7 µM
[7]
  Number of sensitive HRV: 49
Clinical CVB3 isolates; [21]
  IC50: 5.16 µM
Clinical CVB3 isolates; [22]
  IC50: 4.97 µM
Clinical CVB3 isolates; [23]
  IC50: 1.39 µM
Clinical CVB3 isolates
  Number of sensitive CVB3: 18*
CVB3 31-1-93 [8]
  Therapeutic effect (body weight, general condition, virus titre in heart and pancreas, histopathology): effective
CVB3 31-1-93 [9]
  Therapeutic effect (body weight, general condition, lethality): effective

## Nc1nc(-c2cc(C(F)(F)F)cc(C(F)(F)F)c2)nc2[nH]nc(Nc3ccc(Cl)cc3)c12 [MS-115]
other
  melting point: 272 to 274 °C

## Nc1nc(-c2ccccc2C(F)(F)F)nc2[nH]nc(Nc3ccc(Cl)cc3)c12 [MS-116]
other
  melting point: 271 to 273 °C

## Nc1nc(-c2cccc(C(F)(F)F)c2)nc2[nH]nc(Nc3ccccc3)c12 [MS-117]
other
  melting point: 230 to 232 °C

## Nc1nc(-c2ccccc2)nc2[nH]nc(Nc3ccccc3)c12 [Ref-2, 4-amino-3-(phenylamino)-6-phenylpyrazolo[3,4-d]pyrimidine]
Plasma protein
  Binding to plasma protein: 99.5%
  Release of plasma protein: 61.0%
[2]
  Plasma stability: 117.0%
[3]
  Stability in liver microsomes: 32.0%
[4]; [13]
  AUC(0-t): 2350 ng·h/mL
  AUC(0-inf): 2730 ng·h/mL
  Cmax: 1300 ng/mL
  MRT: 2.14 h
  half-life: 2.96 h
  Tmax: 1 h
[5]
  LD50 at 72 h: 3930 mg/kg
  LD50: 78.6 mg/mouse
[5]; [14]
  Dead/Surviving 72 hrs after administration: 0/5
[5]; [15]
  Dead/Surviving 72 hrs after administration: 1/5
[5]; [16]
  Dead/Surviving 72 hrs after administration: 3/5
[5]; [17]
  Dead/Surviving 72 hrs after administration: 4/5

## Nc1nc(-c2ccccc2)nc2[nH]nc(Nc3ccc(Cl)cc3)c12 [Ref-3, 4-amino-3-(4-chlorphenyl)amino-6-phenylpyrazolo[3,4-d]pyrimidine]
[4]; [13]
  AUC(0-t): 1090 ng·h/mL
  AUC(0-inf): 1090 ng·h/mL
  Cmax: 424 ng/mL
  MRT: 2.44 h
  half-life: 1.47 h
  Tmax: 0.5 h
[7]; [18]
  IC50: 0.07 µM
[7]; [19]
  IC50: 18.5 µM
[7]; [20]
  IC50: 16.1 µM
[7]
  Number of sensitive HRV: 23
Clinical CVB3 isolates; [21]
  IC50: 0.71 µM
Clinical CVB3 isolates; [22]
  IC50: 0.68 µM
Clinical CVB3 isolates; [23]
  IC50: 0.13 µM
Clinical CVB3 isolates
  Number of sensitive CVB3: 20

## Nc1nc(-c2ccccc2)nc2[nH]nc(Nc3ccc(F)cc3)c12 [Ref-5, 4-amino-3-[(4-fluorophenyl)amino]-6-phenylpyrazolo[3,4-d]pyrimidine]
other
  melting point: 262 to 263 °C

## Cc1cc(CCCCCCCOc2ccc(C3=NCCO3)cc2)on1 [disoxaril]
[10]
  Bioavailability: low bioavailability
[11]
  Metabolisation and excretion: fast metabolisation and excretion

## Cc1cc(CCCOc2c(C)cc(-c3noc(C(F)(F)F)n3)cc2C)on1 [pleconaril]
CVB3 31-1-93 [8]
  Therapeutic effect (body weight, general condition, virus titre in heart and pancreas, histopathology): in contrast to the placebo and pleconaril CRCV-340 was effective
CVB3 31-1-93 [9]
  Therapeutic effect (body weight, general condition, lethality): In contrast to the placebo and pleconaril CRCV-340 was effective
[10]
  Bioavailability: very good oral bioavailability
